Data: paper PMC5222732 (Journal of medicinal chemistry, 2016)
“And” between values parts separate entries of the source, which are not always exact repeats. Equal entries are not always repeated. Where two headings read alike, the source gives them in different places.

Assays:
Plasma stability assay = format: in vitro ADME; conditions: 37 °C
[1] = target: bovine serum albumin (BSA) (Bos taurus, UniProt P02769); assay: Determination of serum albumin binding; format: in vitro ADME; conditions: BSA 20 mg/mL, pH 7.4, 37 °C, 24-96 h
[2] = target: mouse vas deferens (MVD), DOR (Mus musculus, UniProt P32300); assay: DOR-representative MVD functional assay; format: cell-based
[3] = In vivo brain uptake study, LC-MS/MS
μ opioid receptor (MOR) [4] = target: μ opioid receptor (MOR) (Rattus norvegicus, UniProt P33535); format: binding
μ opioid receptor (MOR) [5] = format: cell-based, guinea pig
Sprague-Dawley rats [6] = assay: Tail heat algesia test; format: in vivo; conditions: rat, 1 mg/kg iv, morphine 4 mg/kg sc
κ opioid receptor (KOR) = κ opioid receptor (KOR) (Cavia porcellus, UniProt P41144); assay: GPI functional assay, κ antagonist Ke; format: cell-based, guinea pig
Sprague-Dawley rats [7] = assay: Hot plate algesia test; format: in vivo; conditions: rat; for effect on morphine analgesia, heat withdrawal threshold (hot plate): morphine 4 mg/kg sc
δ receptors (DOR) = δ receptors (DOR) (Rattus norvegicus, UniProt P33533); assay: δ opioid receptor binding, [3H]DSLET displacement from rat brain membranes; conditions: compared with cyclodal
Sequence of δ receptors (DOR) (P33533 whole entry): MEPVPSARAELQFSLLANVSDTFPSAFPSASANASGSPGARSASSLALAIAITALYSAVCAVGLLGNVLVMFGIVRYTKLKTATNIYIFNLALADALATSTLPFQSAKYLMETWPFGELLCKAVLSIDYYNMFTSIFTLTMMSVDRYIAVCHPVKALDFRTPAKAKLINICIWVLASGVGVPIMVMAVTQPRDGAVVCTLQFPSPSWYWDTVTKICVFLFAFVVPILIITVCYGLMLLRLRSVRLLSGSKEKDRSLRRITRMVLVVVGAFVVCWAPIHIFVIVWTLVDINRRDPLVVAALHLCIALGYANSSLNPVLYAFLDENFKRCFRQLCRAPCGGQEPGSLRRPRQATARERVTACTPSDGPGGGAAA

Sequence of mouse vas deferens (MVD), DOR (P32300 whole entry): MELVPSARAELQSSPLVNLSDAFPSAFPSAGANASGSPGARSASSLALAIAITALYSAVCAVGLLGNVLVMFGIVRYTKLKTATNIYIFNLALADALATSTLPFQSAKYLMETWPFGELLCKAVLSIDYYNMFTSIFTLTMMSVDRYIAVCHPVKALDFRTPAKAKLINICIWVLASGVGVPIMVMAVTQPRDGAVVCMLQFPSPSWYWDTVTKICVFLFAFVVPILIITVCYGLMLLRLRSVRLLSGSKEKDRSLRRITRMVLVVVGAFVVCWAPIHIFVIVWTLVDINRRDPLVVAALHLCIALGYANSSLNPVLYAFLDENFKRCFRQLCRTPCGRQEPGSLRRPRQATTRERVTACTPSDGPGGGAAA
Sequence of κ opioid receptor (KOR) (P41144 whole entry): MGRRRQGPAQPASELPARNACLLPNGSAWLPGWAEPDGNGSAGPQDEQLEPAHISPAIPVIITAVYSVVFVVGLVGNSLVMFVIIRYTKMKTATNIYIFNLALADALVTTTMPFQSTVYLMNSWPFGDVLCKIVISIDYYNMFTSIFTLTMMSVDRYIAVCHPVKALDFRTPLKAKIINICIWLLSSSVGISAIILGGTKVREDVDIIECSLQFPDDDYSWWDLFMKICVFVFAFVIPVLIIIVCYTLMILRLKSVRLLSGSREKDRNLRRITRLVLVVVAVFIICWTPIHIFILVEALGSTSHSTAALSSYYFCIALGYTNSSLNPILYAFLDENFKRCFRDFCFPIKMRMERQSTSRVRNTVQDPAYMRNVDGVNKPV
Sequence of μ opioid receptor (MOR) (Rattus norvegicus, UniProt P33535) (P33535 whole entry): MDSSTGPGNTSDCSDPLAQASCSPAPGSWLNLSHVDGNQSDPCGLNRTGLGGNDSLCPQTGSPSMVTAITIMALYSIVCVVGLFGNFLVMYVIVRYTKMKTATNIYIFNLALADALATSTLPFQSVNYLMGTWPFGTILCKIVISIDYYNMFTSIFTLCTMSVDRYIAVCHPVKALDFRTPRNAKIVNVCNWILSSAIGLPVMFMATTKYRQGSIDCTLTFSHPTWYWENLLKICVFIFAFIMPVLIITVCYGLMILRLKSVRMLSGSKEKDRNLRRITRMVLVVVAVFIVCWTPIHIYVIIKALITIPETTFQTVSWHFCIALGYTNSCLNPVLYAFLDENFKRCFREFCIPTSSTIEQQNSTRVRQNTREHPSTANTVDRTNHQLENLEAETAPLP
Sequence of bovine serum albumin (BSA) (P02769 25-607): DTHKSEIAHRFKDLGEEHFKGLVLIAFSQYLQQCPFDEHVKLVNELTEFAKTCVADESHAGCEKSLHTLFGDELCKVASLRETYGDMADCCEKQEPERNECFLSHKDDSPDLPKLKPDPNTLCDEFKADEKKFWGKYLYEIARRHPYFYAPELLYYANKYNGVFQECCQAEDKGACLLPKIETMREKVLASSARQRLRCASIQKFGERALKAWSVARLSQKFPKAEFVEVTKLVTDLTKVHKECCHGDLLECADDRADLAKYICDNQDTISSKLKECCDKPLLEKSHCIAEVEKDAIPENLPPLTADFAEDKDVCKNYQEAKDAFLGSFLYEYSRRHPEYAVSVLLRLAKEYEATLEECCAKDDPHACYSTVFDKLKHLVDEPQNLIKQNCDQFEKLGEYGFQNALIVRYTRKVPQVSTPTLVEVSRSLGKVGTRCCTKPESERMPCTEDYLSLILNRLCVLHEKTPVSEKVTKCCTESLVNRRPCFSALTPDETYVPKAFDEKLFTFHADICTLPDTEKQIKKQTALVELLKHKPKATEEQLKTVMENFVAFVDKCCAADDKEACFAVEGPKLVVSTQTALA

## Cc1cc(O)cc(C)c1C[C@@H]1NC(=O)[C@H](CCCCN)NC(=O)[C@H](Cc2ccccc2)NC(=O)[C@@H](CCCNC(=N)N)NC1=O [compound 1, c[-D-Arg-Phe-Lys-Dmt-]]
Plasma stability assay
  stability in rat plasma: stable for up to 48 h
[1]
  BSA absorption: No decrease in peptide peak intensity was observed
[2]
  activity in the MVD assay: low efficacy partial agonist activity
[2]; listed as cyclodal
  activity in the MVD assay: weak DOR partial agonist
[3]; male CD1 mice, 2 mg/kg iv
  plasma AUC: 0.0303 µg·min/mL
[3]; mice, 2 mg/kg iv, after administration
  time of maximum brain concentration: 30 min
μ opioid receptor (MOR) [4]
  higher MOR binding affinity: 20 fold
μ opioid receptor (MOR) [5]
  GPI Ke (MOR antagonist): 3.12 ± 0.20 nM and 3.06 ± 0.62 nM
  GPI Ke^μ: 3.26 ± 0.84 nM
Sprague-Dawley rats [6]
  effect on tail withdrawal latency (TWL) after morphine: not at a dose of 1 mg/kg
κ opioid receptor (KOR); GPI Ke (KOR antagonist), against dynorphin A(1-13)
  Kb: 206 ± 24 nM
κ opioid receptor (KOR); GPI Ke^κ, determined against U50,488
  Kb: 40.3 ± 2.6 nM
Sprague-Dawley rats [7]; 1 mg/kg iv
  effect on morphine analgesia, heat withdrawal threshold (hot plate): not at the 1 mg/kg dose
Sprague-Dawley rats [7]; 5 mg/kg iv
  effect on morphine analgesia, heat withdrawal threshold (hot plate): morphine analgesia at the 30 min time point was reduced

## CCCC[C@@H]1NC(=O)[C@H](Cc2ccccc2)NC(=O)[C@@H](CCCNC(=N)N)NC(=O)[C@H](Cc2c(C)cc(O)cc2C)NC1=O [compound 4, c[-D-Arg-Phe-Nle-Dmt-]]
[2]
  activity in the MVD assay: low efficacy partial agonist activity

## Cc1cc(O)cc(C)c1C[C@@H]1NC(=O)[C@H](CCCN)NC(=O)[C@H](Cc2ccccc2)NC(=O)[C@@H](CCCNC(=N)N)NC1=O [compound 6, c[-D-Arg-Phe-Orn-Dmt-]]
[2]
  activity in the MVD assay: low efficacy partial agonist activity
μ opioid receptor (MOR) [5]
  GPI Ke^μ: 16.8 ± 2.6 nM

## Cc1cc(O)cc(C)c1C[C@@H]1NC(=O)C[C@H](CCCCN)NC(=O)[C@H](Cc2ccccc2)NC(=O)[C@@H](CCCNC(=N)N)NC1=O [compound 7, c[-D-Arg-Phe-β-hLys-Dmt-]]
[2]
  MVD IC50: inactive
μ opioid receptor (MOR) [4]
  Ki ratio μ/δ/κ: 1/135/6
  reduced/lower MOR binding affinity: 2 fold
μ opioid receptor (MOR) [5]
  GPI Ke^μ: 10.5 ± 1.1 nM
δ receptors (DOR)
  lower DOR binding affinity: 11 fold
κ opioid receptor (KOR)
  Kb: 18.2 ± 1.7 nM
  more potent KOR antagonist: 2 fold

## Cc1cc(O)cc(C)c1C[C@H](N)C(=O)N[C@H](CCCNC(=N)N)C(=O)N[C@@H](Cc1ccccc1)C(=O)N[C@@H](CCCCN)C(N)=O [compound 9, H-Dmt-D-Arg-Phe-Lys-NH2]
[1]
  BSA absorption: No decrease in peptide peak intensity was observed
[3]; male CD1 mice, 2 mg/kg iv
  brain AUC: 0.352 µg·min/g
[3]; male, CD1, mouse, in vivo, iv, 2 mg/kg
  AUC: 83 ng·h/mL

## C[C@@H](O)[C@H](NC(=O)[C@H]1NC(=O)[C@H]([C@@H](C)O)NC(=O)[C@H](CCCN)NC(=O)[C@@H](Cc2c[nH]c3ccccc23)NC(=O)[C@H](Cc2ccc(O)cc2)NC(=O)[C@@H](NC(=O)[C@H](N)Cc2ccccc2)CSSC1(C)C)C(N)=O [compound 10, H-D-Phe-c[Cys-Tyr-D-Trp-Orn-Thr-Pen]-Thr-NH2, reference compound]
[2]
  activity in the MVD assay: low efficacy partial agonist activity
μ opioid receptor (MOR) [5]
  GPI Ke^μ: 40.9 ± 2.7 nM
κ opioid receptor (KOR)
  Kb: 6940 ± 580 nM

## CN1CC[C@]23c4c5ccc(O)c4O[C@H]2[C@@H](O)C=C[C@H]3[C@H]1C5 [morphine, reference compound]
Sprague-Dawley rats [7]; 4 mg/kg sc, compared to vehicle
  analgesia, heat withdrawal threshold (hot plate): produced analgesia compared to vehicle at the 30 and 60 min time points
